These molecules were tested against T1, HCV polymerase (NS5B570n-Con1) (Hepatitis C virus genotype 1b, UniProt Q9WMX2) (assay: HCV NS5B RNA polymerase activity (incorporation of radiolabeled nucleotide into acid insoluble RNA)).
T1 construct: a 21 amino acid C-terminal deletion of full-length HCV polymerase; made in house; host or cells: E. coli BL21(DE3) pLysS, plasmid pET17b
Format: biochemical, HCV Con1 strain
Protocol: The enzymatic activity of HCV polymerase (NS5B570n-Con1) was measured as the incorporation of radiolabeled nucleotide monophosphates into acid insoluble RNA products. Unincorporated radiolabeled substrate was removed by filtration and scintillant was added to the washed and dried filter plate containing radiolabeled RNA product. The amount of RNA product generated by NS5B570n-Con1 at the end of the reaction was directly proportional to the amount of light emitted by the scintillant.
The HCV polymerase used in the enzymatic activity assay is a 21 amino acid C-terminal deletion of full-length HCV polymerase derived from HCV Con1 strain, genotype 1b (GenBank accession number AJ242654) (NS5B570n-Con1). The NS5B570n-Con1 was sub-cloned downstream to the T7 promoter of the plasmid expression construct pET17b and transformed into E. coli strain BL21(DE3) pLysS for protein expression. A single colony was used to start an innoculum for a 10 L culture in LB media supplemented with 100 μg/mL ampicillin at 37° C. Protein expression was induced by the addition of 0.25 mM isopropyl-β-D-thiogalactopyranoside (IPTG) when the optical density of the culture at […] was 0.8. Induction of protein expression was carried out at 30° C. for 16 h after which the cells were harvested by centrifugation. NS5B570n-Con1 was purified to homogeneity using a three-column purification protocol including subsequent column chromatography on Ni-NTA, SP-Sepharose HP and Superdex 75 resins.
Enzymatic reactions in the presence of cIRES RNA template (see paragraph [00213]) contained 20 nM cIRES RNA, 20 nM NS5B570n-Con1 enzyme, 0.5 μCi of tritiated UTP (Perkin Elmer catalog no. TRK-412; specific activity: 30 to 60 Ci/mmol;), 1 μM each ATP, CTP, and GTP, 40 mM Tris-HCl pH 8.0, 40 mM NaCl, 4 mM DTT (dithiothreitol), 4 mM MgCl2, 5 μl of compound serial diluted in DMSO, and nuclease-free water to a final reaction volume of 50 μl. Enzymatic reactions in the presence of poly A RNA template (see paragraph [00213]) contained 20 nM Poly A:oligo(rU)16 premixed (see section 0004), 20 nM NS5B570n-Con1 enzyme, 1 μCi of tritiated UTP (Perkin Elmer catalog no. TRK-412; specific activity: 30 to 60 Ci/mmol), 40 mM Tris-HCl pH 8.0, 40 mM NaCl, 4 mM DTT (dithiothreitol), 4 mM MgCl2, 5 μl of compound serial diluted in DMSO, and nuclease-free water to a final reaction volume of 50 μl. Reaction mixtures were assembled in 96-well filter plates (cat #MADVN0B, Millipore Co.) and incubated for 2 h at 30° C. Reactions were stopped by addition of 10% final (v/v) trichloroacetic acid and incubated for 40 min at 4° C. Reactions were filtered, washed with 8 reaction volumes of 10% (v/v) trichloroacetic acetic acid, 4 reaction volumes of 70% (v/v) ethanol, air dried, and 25 μl of scintillant (Microscint 20, Perkin-Elmer) was added to each reaction well.
Two RNA templates were used to assay compounds described herein. The cIRES RNA template was 377 nucleotide long and consisted of a partial complementary sequence (36 nucleotides) of the core protein, followed by 341 nucleotide of the complementary sequence of the internal ribosome entry site. The poly A RNA template (GE Amersham catalog number 27-4110) was a homopolymeric RNA pre-annealed to a oligo(rU)16 primer at a molar ratio of 3-to-1 (primer-template).
The amount of light emitted from the scintillant was converted to counts per minute (CPM) on a Topcount® plate reader (Perkin-Elmer, Energy Range: Low, Efficiency Mode: Normal, Count Time: 1 min, Background Subtract: none, Cross talk reduction: Off).
Data was analyzed in Excel® (Microsoft®) and ActivityBase® (Idbs®). The reaction in the absence of enzyme was used to determine the background signal, which was subtracted from the enzymatic reactions. Positive control reactions were performed in the absence of compound, from which the background corrected activity was set as 100% polymerase activity. All data was expressed as a percentage of the positive control. […]

Q: For `O=c1ncn(Cc2ccc(Cl)cc2)c2cc(-c3ccc(SCc4ccncc4)cc3)sc12` [Compound I-59], which IC50 is on record?
A: 167 nM

Q: Which IC50 does the source give for `Cc1nnc(-c2ccc(-c3cc4c(s3)c(=O)ncn4Cc3ccc(Cl)cc3)cc2)o1` [Compound I-33, 1-(4-Chloro-benzyl)-6-[4-(5-methyl-[1,3,4]oxadiazol-2-yl)-phenyl]-1H-thieno[3,2d]pyrimidin-4-one] here?
A: 390 nM

Q: `Cc1ccc(Cn2cnc(=O)c3sc(-c4ccc(-c5cc6ncccn6n5)cc4)cc32)cc1` [Compound I-57, 1-(4-Methyl-benzyl)-6-(4-pyrazolo[1,5-a]pyrimidin-2-yl-phenyl)-1H-thieno[3,2-d]pyrimidin-4-one] was tested. Which IC50 did it give?
A: 108 nM

Q: `O=c1ncn(Cc2ccc(Cl)cc2)c2cc(-c3ccc(SCc4cccnc4)cc3)sc12` [Compound I-51, 1-(4-Chloro-benzyl)-6-[4-(pyridin-3-ylmethylsulfanyl)-phenyl]-1H-thieno[3,2-d]pyrimidin-4-one] was tested. Which IC50 did it give?
A: 313 nM

Q: For `Cc1ccc(Cn2cnc(=O)c3sc(-c4ccc(CO)cc4)cc32)cc1` [Compound I-53, 6-(4-Hydroxymethyl-phenyl)-1-(4-methyl-benzyl)-1H-thieno[3,2-d]pyrimidin-4-one], which IC50 is on record?
A: 560 nM

Q: With `O=c1ncn(Cc2ccc(Cl)cc2)c2cc(-c3ccc(OCc4ccc(F)cc4)cc3)sc12` [Compound I-5, 1-(4-chloro-benzyl)-6-[4-(4-fluoro-benzyloxy)-phenyl]-1H-thieno[3,2-d]pyrimidin-4-one] as the molecule, how does the IC50 read?
A: 13 nM

Q: How did the IC50 turn out when `O=C(Nc1ccc(-c2cc3c(s2)c(=O)ncn3Cc2ccc(Cl)cc2)cc1)c1cnccn1` [Compound I-12, Pyrazine-2-carboxylic acid {4-[1-(4-chloro-benzyl)-4-oxo-1,4-dihydro-thieno[3,2-d]pyrimidin-6-yl]-phenyl}-amide] was run?
A: 32 nM

Q: Which IC50 does the source give for `O=C(Nc1ccccc1)c1ccc(-c2cc3c(s2)c(=O)ncn3Cc2ccc(Cl)cc2)cc1` [Compound I-47, 4-[1-(4-Chloro-benzyl)-4-oxo-1,4-dihydro-thieno[3,2-d]pyrimidin-6-yl]-N-phenyl-benzamide] here?
A: ~40 nM

Q: `CCCCOc1ccc(-c2cc3c(s2)c(=O)ncn3Cc2ccc(Cl)cc2)cc1Cl` [Compound I-25, 6-(4-Butoxy-3-chloro-phenyl)-1-(4-chloro-benzyl)-1H-thieno[3,2-d]pyrimidin-4-one] was tested. Which IC50 did it give?
A: 155 nM

Q: With `Nc1cc(C(=O)Nc2ccc(-c3cc4c(s3)c(=O)ncn4Cc3ccc(Cl)cc3)cc2)ccn1` [Compound I-9, 2-Amino-N-{4-[1-(4-chloro-benzyl)-4-oxo-1,4-dihydro-thieno[3,2-d]pyrimidin-6-yl]-phenyl}-isonicotinamide] as the molecule, how does the IC50 read?
A: 29 nM

Q: `Cc1ccc(Cn2cnc(=O)c3sc(-c4ccc(-c5ccccc5)cc4)cc32)cc1` [Compound I-13] was tested. Which IC50 did it give?
A: 45 nM

Q: With `Cc1cc(N)n2nc(-c3ccc(-c4cc5c(s4)c(=O)ncn5Cc4ccc(Cl)cc4)cn3)cc2n1` [Compound I-42, 6-[6-(7-Amino-5-methyl-pyrazolo[1,5-a]pyrimidin-2-yl)-pyridin-3-yl]-1-(4-chloro-benzyl)-1H-thieno[3,2-d]pyrimidin-4-one] as the molecule, how does the IC50 read?
A: 19 nM

Q: How did the IC50 turn out when `O=c1ncn(Cc2ccc(Cl)cc2)c2cc(-c3ccc(SCc4ccccn4)cc3)sc12` [Compound I-48, 1-(4-Chloro-benzyl)-6-[4-(pyridin-2-ylmethylsulfanyl)-phenyl]-1H-thieno[3,2-d]pyrimidin-4-one] was run?
A: 163 nM

Q: With `O=c1ncn(Cc2ccc(Cl)cc2)c2cc(-c3ccc(Oc4ccccc4)cc3)sc12` [Compound I-24, 1-(4-Chloro-benzyl)-6-(4-phenoxy-phenyl)-1H-thieno[3,2-d]pyrimidin-4-one] as the molecule, how does the IC50 read?
A: 150 nM

Q: With `Cc1cc(C(=O)Nc2ccc(-c3cc4c(s3)c(=O)ncn4Cc3ccc(Cl)cc3)cc2)n[nH]1` [Compound I-15, 5-Methyl-1H-pyrazole-3-carboxylic acid {4-[1-(4-chloro-benzyl)-4-oxo-1,4-dihydro-thieno[3,2-d]pyrimidin-6-yl]-phenyl}-amide] as the molecule, how does the IC50 read?
A: 70 nM

Q: With `O=C(Nc1ccc(-c2cc3c(s2)c(=O)ncn3Cc2ccc(Cl)cc2)cc1)c1ccccn1` [Compound I-39, Pyridine-2-carboxylic acid {4-[1-(4-chloro-benzyl)-4-oxo-1,4-dihydro-thieno[3,2-d]pyrimidin-6-yl]-phenyl}-amide] as the molecule, how does the IC50 read?
A: 5 nM

Q: Which IC50 does the source give for `O=C(Nc1ccc(-c2cc3c(s2)c(=O)ncn3Cc2ccc(Cl)cc2)cc1)N1CCCC1` [Compound I-54, Pyrrolidine-1-carboxylic acid {4-[1-(4-chloro-benzyl)-4-oxo-1,4-dihydro-thieno[3,2-d]pyrimidin-6-yl]-phenyl}-amide] here?
A: 76 nM

Q: `Cc1cc(N)n2nc(-c3ccc(-c4cc5c(s4)c(=O)ncn5C[C@H]4CC[C@H](C)CC4)cn3)cc2n1` [Compound I-43, 6-[6-(7-Amino-5-methyl-pyrazolo[1,5-a]pyrimidin-2-yl)-pyridin-3-yl]-1-(4-methyl-cyclohexylmethyl)-1H-thieno[3,2-d]pyrimidin-4-one] was tested. Which IC50 did it give?
A: 428 nM

Q: Which IC50 does the source give for `O=C(Nc1ccc(-c2cc3c(s2)c(=O)ncn3Cc2ccc(Cl)cc2)cc1)c1ccc(O)cn1` [Compound I-46, 5-Hydroxy-pyridine-2-carboxylic acid, {4-[1-(4-chloro-benzyl)-4-oxo-1,4-dihydro-thieno[3,2-d]pyrimidin-6-yl]-phenyl}-amide] here?
A: 17 nM

Q: For `O=C(Nc1ccc(-c2cc3c(s2)c(=O)ncn3Cc2ccc(Cl)cc2)cn1)c1ccccn1` [Compound I-41, Pyridine-2-carboxylic acid {5-[1-(4-chloro-benzyl)-4-oxo-1,4-dihydro-thieno[3,2-d]pyrimidin-6-yl]-pyridin-2-yl}-amide], which IC50 is on record?
A: 62 nM

Q: How did the IC50 turn out when `CC(=O)Nc1ccc(-c2cc3c(s2)c(=O)ncn3Cc2ccc(Cl)cc2)cc1` [Compound I-37, N-{4-[1-(4-Chloro-benzyl)-4-oxo-1,4-dihydro-thieno[3,2-d]pyrimidin-6-yl]-phenyl}-acetamide] was run?
A: 586 nM

Q: With `Nc1nccc(C(=O)Nc2ccc(-c3cc4c(s3)c(=O)ncn4Cc3ccc(Cl)cc3)cc2)n1` [Compound I-8, 2-Amino-pyrimidine-4-carboxylic acid {4-[1-(4-chloro-benzyl)-4-oxo-1,4-dihydro-thieno[3,2-d]pyrimidin-6-yl]-phenyl}-amide] as the molecule, how does the IC50 read?
A: 26 nM

Q: How did the IC50 turn out when `COc1cccc(C(=O)Nc2ccc(-c3cc4c(s3)c(=O)ncn4Cc3ccc(Cl)cc3)cc2Cl)c1` [Compound I-26] was run?
A: 162 nM

Q: Which IC50 does the source give for `O=C(Nc1ccc(-c2cc3c(s2)c(=O)ncn3Cc2ccc(Cl)cc2)nc1)c1ccccn1` [Compound I-40, Pyridine-2-carboxylic acid {6-[1-(4-chloro-benzyl)-4-oxo-1,4-dihydro-thieno[3,2-d]pyrimidin-6-yl]-pyridin-3-yl}-amide] here?
A: 131 nM

Q: How did the IC50 turn out when `Cc1ccc(C(=O)Nc2ccc(-c3cc4c(s3)c(=O)ncn4Cc3ccc(Cl)cc3)cc2)o1` [Compound I-3, 5-Methyl-furan-2-carboxylic acid {4-[1-(4-chloro-benzyl)-4-oxo-1,4-dihydro-thieno[3,2-d]pyrimidin-6-yl]-phenyl}-amide] was run?
A: 9 nM

Q: With `CC(C)C(=O)Nc1ccc(-c2cc3c(s2)c(=O)ncn3Cc2ccc(Cl)cc2)cc1F` [Compound I-55] as the molecule, how does the IC50 read?
A: 1790 nM

Q: `O=C(Nc1ccc(-c2cc3c(s2)c(=O)ncn3Cc2ccc(Cl)cc2)cc1)c1cc(F)ccc1F` [Compound I-7, N-{4-[1-(4-Chloro-benzyl)-4-oxo-1,4-dihydro-thieno[3,2-d]pyrimidin-6-yl]-phenyl}-2,5-difluoro-benzamide] was tested. Which IC50 did it give?
A: 21 nM

Reference: patent US20110070190A1 (Roche Palo Alto LLC, priority 2009, published 2011)
